Experimental findings from patent publication US20040259096A1, “Receptor capture assay” (priority 2001, published 2004) are described below.

The series addresses T1, AhR (Cavia porcellus, UniProt Q6J287).
T1 sequence (Q6J287 1-846): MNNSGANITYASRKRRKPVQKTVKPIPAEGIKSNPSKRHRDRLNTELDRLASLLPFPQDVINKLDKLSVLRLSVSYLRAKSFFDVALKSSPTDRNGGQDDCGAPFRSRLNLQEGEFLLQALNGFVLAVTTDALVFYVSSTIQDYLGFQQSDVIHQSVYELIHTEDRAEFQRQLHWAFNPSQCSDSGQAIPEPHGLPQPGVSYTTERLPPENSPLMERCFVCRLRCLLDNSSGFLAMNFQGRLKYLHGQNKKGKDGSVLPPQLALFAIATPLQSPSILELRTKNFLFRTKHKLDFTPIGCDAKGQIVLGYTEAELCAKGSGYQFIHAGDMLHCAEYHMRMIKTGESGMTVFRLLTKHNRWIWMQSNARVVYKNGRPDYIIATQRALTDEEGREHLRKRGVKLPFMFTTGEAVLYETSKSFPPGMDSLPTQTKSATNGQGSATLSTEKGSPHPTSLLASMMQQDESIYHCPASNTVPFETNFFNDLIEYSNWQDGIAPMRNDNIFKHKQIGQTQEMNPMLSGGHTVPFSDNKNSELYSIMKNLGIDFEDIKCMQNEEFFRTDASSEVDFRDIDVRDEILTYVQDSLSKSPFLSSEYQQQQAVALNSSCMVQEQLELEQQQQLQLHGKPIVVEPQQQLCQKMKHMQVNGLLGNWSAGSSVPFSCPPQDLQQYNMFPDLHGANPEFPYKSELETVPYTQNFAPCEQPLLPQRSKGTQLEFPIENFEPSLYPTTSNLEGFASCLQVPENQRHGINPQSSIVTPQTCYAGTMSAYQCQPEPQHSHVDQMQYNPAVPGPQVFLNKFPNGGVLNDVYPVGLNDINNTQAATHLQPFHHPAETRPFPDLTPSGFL
The experiment in a line: Receptor capture assay, real-time PCR, rodent cytosol as source of AhR. It is filed as biochemical. On the set-up: EC50 of dose-response curve; other: TCDD and BNF curves performed simultaneously; slope of dose-response curve. The settings on record: TCDD and BNF curves performed simultaneously. On the procedure: A set of calibrators consisting of 5000, 2500, 1250, […], 313, 156, and 78 parts per trillion (ppt or pg/ml) 2,3,7,8-tetrachlorodibenzo-p-dioxin (TCDD) was prepared in methanol. In addition to TCDD a set of calibrators for AhR agonist, beta-naphthoflavone (BNF) was prepared and analyzed in the assay. Separately, 25 ul of 1:50,000 dilution of 10 uM stock nucleic acid-tracer was added per 1 ml of rodent cytosol, which was the source of AhR, and was aliquoted into glass tubes. The standards were diluted 1:20 into 50-100 ul of rodent cytosol, and incubated for 1-2 hr at room temperature to 37° C. Following incubation, 40 to 100 ul of the reaction was transferred to each well of the antibody-coated Capture Strip and incubated on a shaking platform for 30 min to 1 hr at room temperature. The Capture Strips were washed 5 times with Wash Buffer B, and aspirated; optionally soaking wells for 30 sec-5 min with wash buffer during each cycle. Taqman® Universal PCR Master Mix, primers, and Taqman® probe (Applied Biosystems, Calif.) were added, and adhesive cover applied. PCR was performed and analyzed using an ABI PRISM® 7700, using default settings: 50° C., 2 min, 95° C. 10 min, and 40 cycles of [95° C., 15 sec, 60° C., 60 sec]. A threshold cycle (Ct) was determined for each reaction The Ct represents the PCR cycle at which an increase in reporter fluorescence above baseline signal can first be detected.
A general note: In qPCR the cycle at which signal appears reflects the starting amount.

Structures are written as SMILES.

For `O=c1cc(-c2ccccc2)oc2ccc3ccccc3c12` [BNF, beta-naphthoflavone], the “slope of dose-response curve” value is listed as −0.7637. For the same compound, where the note is “read-out: EC50 of dose-response curve”, the EC50 (commonly the concentration at which the effect is half-maximal) is 0.04 nM.

For `Clc1cc2c(cc1Cl)Oc1cc(Cl)c(Cl)cc1O2` [TCDD, 2,3,7,8-tetrachlorodibenzo-p-dioxin], the “slope of dose-response curve” value is listed as −1.195.
